# Data reported in patent US8883827B2, “Azole derivatives as WTN pathway inhibitors” (Oslo University Hospital HF, priority 2009, dated 2014).
# Key:
# Assay type in all cases: cell-based
# HT-29 = experiment: MTS cell proliferation assay, Table 6; conditions: 10 μM, 72 h, relative to DMSO control
# Source text: (§1) Control cell lines used were HeLa cells (cell growth not controlled by canonical Wnt signalling) and colorectal cancer cell lines LS174T and HCT116 (with mutant β-catenin N-terminal phosphorylation sites). Target cell lines used were colorectal cancer cell lines WiDr, LoVo, HCT-8, HCT-15, COL0205, DLD-1, HT-29, SW620, SW1463, SW480 which all carry a mutant APC gene. Target cells, along with L Wnt3a-expressing cells and HEK293 cells, were purchased from ATCC (American Type Culture Collection) and maintained according to the supplier's recommendations. Wnt3a containing conditioned media (Wnt3a-CM) from L Wnt3a expressing cells was harvested as described by ATCC.
# (§2) For the experiment giving the results shown in Table 6, cells were exposed to cell culture medium (including 10% FBS) containing 10 μM of the compound to be tested 24 hours after seeding (3000 cells on 96-well plates). Medium was changed daily. After 72 hours, an MTS assay (CellTiter 96® AQueous Non-Radioactive Cell Proliferation Assay—Promega) was carried out according to the standard procedure. 0.1% DMSO was used as a control.
# (§3) The quantity of reduced MTS product (as measured by the absorbance at 490 nm) is directly proportional to the number of living cells in the culture and thus allows a direct comparison of cell proliferation in each case. DMSO was used as a control. The following formula was used to determine single well relative A490 sample values: ((Sample A490−Average A490t0)*100)/(Average A490t720.1% DMSO control−Average A490t0)
# (§4) Data shown are A490-percentage values relative to the DMSO control, calculated as described above, and represent averages from 2 to 4 independent experiments (except SW1463 cells treated with IWR-1 which reports only a single experiment). Compounds IWR-1 and XAV939 are known Wnt pathway inhibitors.
# SW480 = experiment: MTS cell proliferation assay, Table 6; conditions: 10 μM, 72 h, relative to DMSO control
# Source text: as §1, §2, §3, §4
# HeLa cells = experiment: MTS cell proliferation assay, Table 6; conditions: HeLa (control); 10 μM, 72 h; relative to DMSO control
# Source text: as §1, §2, §3, §4
# LoVo = experiment: MTS cell proliferation assay, Table 6; conditions: 10 μM, 72 h, relative to DMSO control
# Source text: as §1, §2, §3, §4
# HCT116 = experiment: MTS cell proliferation assay, Table 6; conditions: HCT116 (control); 10 μM, 72 h; relative to DMSO control
# Source text: as §1, §2, §3, §4
# COLO205 = experiment: MTS cell proliferation assay, Table 6; conditions: 10 μM, 72 h, relative to DMSO control
# Source text: as §1, §2, §3, §4
# LS174T = experiment: MTS cell proliferation assay, Table 6; conditions: LS174T (control); 10 μM, 72 h; relative to DMSO control
# Source text: as §1, §2, §3, §4
# SW620 = experiment: MTS cell proliferation assay, Table 6; conditions: 10 μM, 72 h, relative to DMSO control
# Source text: as §1, §2, §3, §4
# DLD-1 = experiment: MTS cell proliferation assay, Table 6; conditions: 10 μM, 72 h, relative to DMSO control
# Source text: as §1, §2, §3, §4
# HCT-8 = experiment: MTS cell proliferation assay, Table 6; conditions: 10 μM, 72 h, relative to DMSO control
# Source text: as §1, §2, §3, §4
# WiDr = experiment: MTS cell proliferation assay, Table 6; conditions: 10 μM, 72 h, relative to DMSO control
# Source text: as §1, §2, §3, §4
# HCT-15 = experiment: MTS cell proliferation assay, Table 6; conditions: 10 μM, 72 h, relative to DMSO control
# Source text: as §1, §2, §3, §4
# SW1463 = experiment: MTS cell proliferation assay, Table 6; conditions: 10 μM, 72 h, relative to DMSO control
# Source text: as §1, §2, §3, §4
# APC mutant cell lines = experiment: MTS cell proliferation assay, Table 6, mean; conditions: 10 μM, 72 h; for Ratio of means: APC mutant cell lines versus control cell lines; for Mean proliferation (APC mutant cell lines): ten APC mutant colorectal lines
# Source text: as §1, §2, §3, §4
# control cell lines = experiment: MTS cell proliferation assay, Table 6, mean; conditions: HeLa, HCT116, LS174T; 10 μM, 72 h
# Source text: as §1, §2, §3, §4
# canonical Wnt signaling [1] = experiment: ST-Luc (SuperTOPFlash) Luciferase assay in HEK293 cells, 30% Wnt3a-CM; conditions: Homo sapiens, HEK293; 10 μM compound, 30% Wnt3a-CM, 24 h; relative to DMSO control
# Procedure: Inhibition of Wnt signaling by compound No. 1 was quantified in vitro using a Luciferase assay in HEK293 cells transiently transfected with SuperTOPFlash plasmid (ST-Luc) (Veeman M T et al., Curr. Biol. 13: 680-685, 2003) at concentrations from 0.1-10 μM. HEK293 cells were purchased from ATCC (American Type Culture Collection) and maintained according to suppliers recommendations.
# Transfection was performed using 80000 HEK293 cells seeded in 48-well plates coated with poly-L lysine. After 24 hours, 0.25 μg total plasmid DNA (0.23 μg SuperTOPFlash+0.02 μg pRL-TK (Renilla)—Promega) and 0.75 μl FuGENE6 (Roche) was combined in a total volume in 25 μl Opti-MEM® (Invitrogen) as described by the manufacturer (Roche). The transfection mixture was added to the plated cells and media were changed after 24 hours.
# The Luciferase assay was performed by incubating transfected cells for 24 hours with various concentrations of compound No. 1 in 30% Wnt3a-CM (Wnt3a containing conditioned medium from L Wnt3a cells was harvested as described by ATCC). All treated reporter cells were finally lysed and the firefly luciferase and Renilla activities were measured on a 20/20n Luminometer (Turner BioSystems) as described in the Dual-Glo™ Luciferase Assay System Technical Manual (Promega).
# HEK293 cells were transfected, grown and assayed as described in Example 22. 24 hours after seeding, the cells were incubated for an additional 24 hours with 10 μM concentrations of compounds in 30% Wnt3a-CM.
# The percent activities shown in Table 3 are calculated relative to DMSO as a control. Some values shown are averages of multiple measurements. Compound XAV939 (Novartis; Huang et al., Nature (2009), 461, pp. 614-20) which is used as a positive control, has an activity of 7%.
# canonical Wnt signaling [2] = experiment: IC50 in STF/REN HEK293 cells, 50% Wnt3a-CM; conditions: Homo sapiens; STF/REN HEK293, 50% Wnt3a-CM, 24 h
# Procedure: IC50 values were calculated using STF/REN HEK293 cells prepared essentially according to Example 22. Briefly, HEK293 cells (80,000 cells per well) were seeded in 48-well plates coated with poly-L lysine. 24 hours after seeding, the cells were incubated for an additional 24 hours with various compound concentrations in 50% Wnt3a-CM. After compound exposure, the cells were lysed and the firefly luciferase and Renilla activities were measured on a 20/20n Luminometer (Turner BioSystems) as described in the Dual-Glo™ Luciferase Assay System Technical Manual (Promega).
# (§5) XLfit (idbs) was used to determine the IC50 and GI50 values in inhibition experiments. The data were fit to the following formulae:
# IC50: Langmuir Binding Isotherm: fit=((A+(B*x))+(((C−B)*(1−exp((−1*D)*x)))/D)) res=(y−fit)
# SW480 cells = experiment: Growth inhibition (GI50) MTS assay; conditions: Homo sapiens, 72 h
# Procedure: Growth inhibition curves were prepared using SW480 cells, prepared essentially according to Example 23. SW480 cells (3000 cells per well) were seeded on 96 well plates (eight replicates per treatment). 24 hours later and daily thereafter, cell culture media (including 10% FBS) was mixed with various compound concentrations or with 0.1% DMSO vehicle and then added to the wells. Sixteen wells of seeded control cells, defining incubation time zero (to =24 hour after cell seeding), were incubated with […] substrate in 100 μl of phenol-free D-MEM (Invitrogen) for 2 hours, as described in the CellTiter 96® AQueous Non-Radioactive Cell Proliferation Assay protocol (MTS, Promega). The A490 was recorded. The treatment samples were likewise measured after 72 hours. The following formula was used to determine the single well relative A490 sample values: ((Sample A490−Average A490t0)*100)/(Average A490t720.1% DMSO control−Average A490t0)
# as §5
# GI50: Eadie-Hofstee Model: fit=(A+((B*x)/((C*(D+1))+x))) inv=(((y−A)*(C*(D+1)))/((A+B)−y)) res=(y−fit)
# [3] = tested on: SW480 colon carcinoma cells; experiment: MTS cell proliferation assay, Table 5; conditions: Homo sapiens; SW480, 10 μM, 72 h; relative to DMSO control; read-out: Cell proliferation (%) for test compounds
# Procedure: For the experiment giving the results shown in Table 5, cells (3000 per well) were seeded on 96 well plates (eight replicates per treatment). After 24 hours, and daily thereafter, cell culture medium (including 10% FBS) was mixed with 10 μM compounds or with 0.1% DMSO vehicle and then added to the wells. Sixteen wells of seeded control cells, defining incubation time zero (t0=24 hour after cell seeding), were incubated with 20 μl substrate in 100 μl phenol free D-MEM (Invitrogen) for 2 hours, as described in the CellTiter 96® AQueous Non-Radioactive Cell Proliferation Assay protocol (Promega). The A490 was recorded. The treatment samples were likewise measured after 72 hours.
# as §3
# The proliferation of SW480 cells (in percent) is the A492 value relative to that of the DMSO control.
Structure (SMILES),Cell proliferation (%) (HT-29),Cell proliferation (%) (SW480),Cell proliferation (%) (HeLa cells),Cell proliferation (%) (LoVo),Cell proliferation (%) (HCT116),Cell proliferation (%) (COLO205),Cell proliferation (%) (LS174T),Cell proliferation (%) (SW620),Cell proliferation (%) (DLD-1),Cell proliferation (%) (HCT-8),Cell proliferation (%) (WiDr),Cell proliferation (%) (HCT-15),Cell proliferation (%) (SW1463),Ratio of means (APC mutant cell lines),Mean proliferation (APC mutant cell lines) (APC mutant cell lines) [%],Mean proliferation (control cell lines) (control cell lines) [%],activity at 10 µM (canonical Wnt signaling [1]) [%],IC50 (canonical Wnt signaling [2]) [nM],GI50 (SW480 cells) [nM],activity at 10 µM [3] [%]
"O=C(Nc1cccc2cccnc12)c1ccc(N2C(=O)[C@@H]3[C@H](C2=O)[C@@H]2C=C[C@H]3C2)cc1 [IWR-1, reference compound]",33,62,77,73,83,55,63,48,97,70,61,64,57,0.83,62,74,–,–,–,–
Cc1ccc(-c2noc(CSc3nnc(-c4ccncc4)n3-c3ccccc3Cl)n2)cc1 [compound 43],63,51,92,64,86,33,99,33,76,69,76,54,1,0.56,52,92,7.8,160,8000,–
Cc1ccc(-c2nnc(CSc3nnc(-c4ccncc4)n3-c3ccccc3Cl)o2)cc1 [compound 60],58,59,92,67,87,53,105,50,78,51,70,54,12,0.58,55,95,17.3,< 100,–,49
"Oc1nc(-c2ccc(C(F)(F)F)cc2)nc2c1CSCC2 [XAV939, reference compound]",100,103,92,129,109,116,97,102,102,105,94,90,64,1.01,101,99,7,< 100,–,–
